Assay results taken from patent US20240002458A1, “NOVEL VHL SMALL MOLECULE PROBES” (St. Jude Children's Research Hospital, priority 2020, published 2024).

How the values were obtained:
GST-VCB protein complex [1] = target: T1, GST-VCB protein complex (Homo sapiens, UniProt P40337); test: BODIPY FL VH032 (5)-mediated pVHL FP binding assay (competition); details: for pVHL inhibitory activity in the FP assay: 2.1 pM to 30 μM
Procedure: It was freshly prepared every time before an experiment. […] The FP signals were determined at the 90-min incubation time. […] The FP signals or the FP signal fold changes were plotted with the GraphPad Prism software. […] The FP Ki values were used to compare the relative binding affinities of the test ligands to pVHL.

GST-VCB protein complex [2] = target: T1, GST-VCB protein complex; test: BODIPY FL VH032 (5)-mediated pVHL TR-FRET binding assay (competition); details: for pVHL inhibitory activity in the TR-FRET binding assay: 2.1 pM to 30 μM; for pVHL inhibitory activity in the TR-FRET binding assay / IC50 / Ki: 90-min incubation; for IC50 / Ki: 4 nM BODIPY FL VH032 (5), 2 nM Tb-anti-GST; for Ki: read-out: Ki, pVHL TR-FRET binding assay (Cheng-Prusoff)
VCB = VCB (Homo sapiens, UniProt P40337); details: 10 nM FAM-HIF-1α, 15 nM VCB; read-out: Kd, reported FAM-HIF-1α peptide (19-mer)-based FP assay; cited from earlier work
GST-VCB protein complex [3] = target: T1, GST-VCB protein complex; test: Determination of BODIPY FL VH032 (5) binding Kd to GST-VCB protein complex in a TR-FRET binding assay; details: for Kd: 2 nM GST-VCB
Text: For the BODIPY FL VH032 (5)-mediated pVHL TR-FRET binding assay, a reported TR-FRET assay protocol (Lin, et al. (2014) Development of BODIPY FL vindoline as a novel and high-affinity pregnane X receptor fluorescent probe. Bioconjug Chem 25, 1664-1677) was followed except that an Echo 555 Acoustic Liquid Handler (Labcyte Inc., San Jose, CA) was used to dispense chemicals and BODIPY FL VH032 (5), GST-VCB and Tb-anti-GST antibody were used.
The pVHL TR-FRET binding assay buffer has a formula of 50 mM Tris pH 7.5, 0.1% Triton X-100, 0.01% bovine serum albumin, 1 mM DTT. It was freshly prepared every time before an experiment.
Dilutions of BODIPY FL VH032 (5, 1-to-2 dilutions, a concentration range of 0.06 nM to 500 nM) was incubated with 2 nM Tb-anti-GST along with, group 1: 2 nM GST-VCB+DMSO; group 2: 2 nM GST-VCB+VH298 (2, 30 μM); or group 3: without GST-VCB+DMSO. The TR-FRET signals were monitored every 30 min from 30 min to 300 min with a PHERAstar FS plate reader equipped with a TR-FRET optic module (excitation: 340 nm; emission 1: 520 nm; emission 2: 490 nm). The TR-FRET signals were fitted into GraphPad Prism 8.4.3 software (GraphPad Software; San Diego, CA) using a one-site total binding equation to derive curves for each group.

GST-VCB protein complex [4] = target: T1, GST-VCB protein complex; test: Determination of BODIPY FL VH032 (5) binding Kd to GST-VCB protein complex in a FP binding assay; details: VH298 30 μM, 1000 nM GST-VCB, 10 nM probe
Procedure: For the BODIPY FL VH032 (5)-mediated pVHL FP binding assay, the general TR-FRET assay protocol was followed except that the […] antibody was not added and the PHERAstar FS plate reader (BMG Labtech; Durham, NC) was equipped with a FP optic module (Excitation: 485 nm, Emission: 520 nm) to read FP assay signals.
The pVHL FP assay buffer has a formula of 25 mM HEPES pH 7.4, 0.01% Tween-20, 0.5 mM DTT, 0.01% BSA. It was freshly prepared every time before an experiment.
BODIPY FL VH032 (5, 10 nM) was incubated with dilutions of GST-VCB (1-to-2 dilutions, a concentration range of 0.03 nM to 1 μM) along with the DMSO group or VH298 (2, 30 μM) group. In addition, BODIPY FL VH032 (5, 10 nM) was incubated with DMSO only, but without GST-VCB. The FP signals were determined with the PHERAstar FS plate reader. The representative data collected at 90-min incubation time was plotted with the GraphPad Prism software using a one-site total binding equation to derive curves for each group. The binding affinity Kd values were derived from the DMSO with GST-VCB.

NCCCCNC(=O)COc1cccc2c1C(=O)N(C1CCC(=O)NC1=O)C2=O (stereo not drawn)
pVHL inhibitory activity in the FP assay (GST-VCB protein complex [1]; 90-min incubation): did not show pVHL inhibitory activity
pVHL inhibitory activity in the TR-FRET binding assay (GST-VCB protein complex [2]): inactive

Cc1ncsc1-c1ccc(CNC(=O)[C@@H]2C[C@@H](O)CN2C(=O)[C@@H](NC(=O)OC(C)(C)C)C(C)(C)C)cc1 [BOC-VH032 (8)]
Kd (VCB): 6500 nM
IC50 (GST-VCB protein complex [1]; 10 nM BODIPY FL VH032 (5), 100 nM GST-VCB, 90-min incubation): 16300 nM
Ki (GST-VCB protein complex [1]; 10 nM BODIPY FL VH032 (5), 100 nM GST-VCB, 90-min incubation, read-out: Ki, pVHL FP assay (Nikolovska-Coleska method)): 8000 nM
IC50 (GST-VCB protein complex [2]; 2 nM GST-VCB): 4900 nM
Ki (GST-VCB protein complex [2]; 2 nM GST-VCB): 2100 nM

CC1=CC(C)=[N+]2C1=Cc1ccc(CCC(=O)NCCOCCOCCOCCOCC(=O)NC(C(=O)N3CC(O)CC3C(=O)NCc3ccc(-c4scnc4C)cc3)C(C)(C)C)n1[B-]2(F)F [BODIPY FL VH032 (5), (2S,4R)-1-4S)-2-(tert-butyl)-21-(5,5-difluoro-7,9-Dimethyl-5H-5Λ^4,6Λ^4-dipyrrolo[1,2-c:2′,1′-f][1,3,2]diazaborinin-3-yl)-4,19-dioxo-6,9,12,15-tetraoxa-3,18-diazahenicosanoyl)-4-hydroxy-N-(4-O-methylthiazol-5-yl)benzyl)pyrrolidine-2-carboxamide]
Kd (GST-VCB protein complex [3]; 90-min incubation, 2 nM Tb-anti-GST): 3.01 nM
Kd (GST-VCB protein complex [3]; 120-min incubation): 3.04 nM
Kd (GST-VCB protein complex [3]; 150-min incubation): 3.01 nM
Kd (GST-VCB protein complex [3]; 180-min incubation): 2.98 nM
Kd (GST-VCB protein complex [3]; 240-min incubation): 2.98 nM
Kd (GST-VCB protein complex [3]; 300-min incubation): 3.04 nM
highest TR-FRET signal fold change, 2 nM GST-VCB+DMSO / without GST-VCB+DMSO (GST-VCB protein complex [3]; at 3.9 nM BODIPY FL VH032 (5), 90 min): 16.2 fold
highest TR-FRET signal fold change, 2 nM GST-VCB+DMSO / 2 nM GST-VCB+VH-298 (2) (GST-VCB protein complex [3]; at 7.8 nM BODIPY FL VH032 (5), 90 min): 15.1 fold

Cc1ncsc1-c1ccc([C@H](C)NC(=O)[C@@H]2C[C@@H](O)CN2C(=O)[C@@H](N)C(C)(C)C)cc1 [Me-VH032 amine (7)]
concentration at which the compound disturbed the FP assay detection (assay interference) (GST-VCB protein complex [1]; FP assay, not observed in TR-FRET): ≥ 370 nM
IC50 (GST-VCB protein complex [2]; 2 nM GST-VCB): 7900 nM
Ki (GST-VCB protein complex [2]; 2 nM GST-VCB): 3400 nM

Cc1ncsc1-c1ccc(CNC(=O)[C@@H]2C[C@@H](O)CN2C(=O)[C@@H](NC(=O)COCCOCCOCCOCCN)C(C)(C)C)cc1 [VH032-PEG4-amine (10)]
IC50 (GST-VCB protein complex [2]; 2 nM GST-VCB): 5.9 nM

Cc1ncsc1-c1ccc(CNC(=O)[C@@H]2C[C@@H](O)CN2C(=O)[C@@H](NC(=O)C2(C#N)CC2)C(C)(C)C)cc1 [VH298 (2), (2S,4R)-1-((S)-2-(1-Cyanocyclopropanecarboxamido)-3,3-dimethylbutanoyl)-4-hydroxy-N-(4-(4-methylthiazol-5-yl)benzyl)pyrrolidine-2-carboxamide]
FP signal of the positive control (GST-VCB protein complex [1]; VH298 30 μM, 10 nM probe, 100 nM GST-VCB, 90 min): 14.5 mP
TR-FRET signal of the positive control group (GST-VCB protein complex [2]; VH298 30 μM, 2 nM GST-VCB, 4 nM probe, all incubation times 30 to 300 min): 278.7±4.5 RTU
FP signal, GST-VCB-mediated non-specific interaction (GST-VCB protein complex [4]): 43.0 mP

Cc1sc2c(c1C)C(c1ccc(Cl)cc1)=N[C@@H](CC(=O)NCCCCNC(=O)COc1cccc3c1C(=O)N(C1CCC(=O)NC1=O)C3=O)c1nnc(C)n1-2 (stereo partly drawn) [dBET1 (12)]
pVHL inhibitory activity in the FP assay (GST-VCB protein complex [1]; 90-min incubation): did not show pVHL inhibitory activity
pVHL inhibitory activity in the TR-FRET binding assay (GST-VCB protein complex [2]): inactive
